Assay results reported in patent US11439646B2, “Anti-proliferative agents for treating PAH” (Pfizer Inc., priority 2016, dated 2022).
Read-outs that look alike come from different tables or passages of the source.

How the values were obtained:
rat primary PASMCs = test: BrdU cell proliferation assay, rat primary PASMCs; assay type: cell-based; conditions: PASMC, 24 h, 5% FBS, average of 3, FIG. 1d, read-out: IC50, proliferation of rat primary PASMCs induced by 5% FBS
Experimental: (§1) Cell proliferation assay. Primary PASMCs and PAAFs from normal human subjects (ScienCell Research Laboratories, San Diego, Calif., USA) and rat primary PASMCs (Cell Applications, San Diego, Calif., USA) were plated in CellBIND® 96-well plates in Dulbecco's modification of Eagle's medium (DMEM) containing 5% fetal bovine serum (FBS), and serum-starved for 24 h in DMEM containing 0.1% FBS. Cells were first pre-incubated with different concentrations of palbociclib (in triplicates) for 30 minutes, and then 30 ng/ml PDGF-BB or 5% FBS was added to stimulate cell proliferation. Cells were maintained for 48 h before the proliferation rate was evaluated using the Cell Proliferation ELISA BrdU (bromodeoxyuridine) Luminescence Kit (Roche Diagnostics, Mannheim, Germany). BrdU was added to the medium 16 h before the quantification of BrdU incorporation. This procedure was use to generate data as presented in at least FIGS. 1a, 1b, 1c, and 1d. IC50 values were calculated for any given inhibitor by determining the concentration of compound needed to inhibit 50% of the response applied to the system. IC50 values were derived from the four parameter logistic equation which was fit to the compound concentration response data.

human primary PAAFs = test: BrdU cell proliferation assay, human primary PAAFs; assay type: cell-based; conditions: serum, average of 3, FIG. 1c, read-out: IC50, serum-induced proliferation of human primary PAAFs
Experimental: as §1

phospho-Rb (Ser807/811) = test: In-cell western analysis of Rb phosphorylation in human PASMCs; assay type: cell-based; conditions: for IC50: PASMC
Experimental: In-cell western analysis. Primary PASMCs from normal human subjects were cultured and serum-starved as described above. Cells were first pre-incubated with different concentrations of palbociclib for 60 minutes, and then either 5% FBS or 10% FBS or 30 ng/ml PDGF-BB was added to stimulate cell proliferation and Rb phosphorylation. The effect of Palbociclib on Rb phosphorylation was evaluated 24 h later, using in-cell western assay according to the manufacturer's instructions (Li-Cor Biosciences, Lincoln, Nebr., USA). Phosphorylated Rb was measured using a rabbit monoclonal antibody anti-phospho-Rb (Ser807/811) (Cell Signaling Technology, Inc., Danvers, Mass., USA), followed by detection with IRDye 800CW infrared fluorescent dye-labeled goat anti-rabbit secondary antibody. Actin levels were measured using mouse anti-actin monoclonal antibodies (pan Ab-5) (Fisher Scientific Pittsburgh, Pa., USA; Sigma Aldrich, St. Louis, Mo., USA), and followed by detection with IRDye 680RD-labeled goat anti-mouse secondary antibody. See FIG. 2a where 5% FBS was used, FIG. 2b where PDGF-BB was used, and FIG. 2c where 10% FBS was used.

[1] = system: Rat MCT-induced PAH Model; test: Rat MCT-induced PAH model (hemodynamics, histomorphometry, IHC); assay type: in vivo
Experimental: Rat MCT-induced PAH Model: Male Sprague-Dawley rats (Charles River Laboratories) (260-280 g; vehicle control group, n=6; all other groups, n=15) received MCT (50 mg/kg, SC; 1 ml/kg BVV) dissolved in vehicle (33.3% 1 N HCl, 14.8% 1 N NaOH, 52.2% diH2O) or vehicle alone on day 0. Sildenafil (50 mg/kg/dose; BID) was administered (5 ml/kg, PO) either prophylactically from days 0-28 or therapeutically from days 14-28. Palbociclib (100 mg/kg; QD) was administered therapeutically (days 14-28). Both sildenafil and palbociclib were resuspended in vehicle (0.5% methylcellulose) and administered orally (5 ml/kg). On day 28, animals were anesthetized via isoflurane, hemodynamic parameters were evaluated, and tissues harvested after euthanasia.
Hemodynamic measurements—monocrotaline (MCT) study: On day 28, animals were anesthetized via 2% isofluorane in positive pressure ventilator. Pulmonary hemodynamics were measured using a pre-calibrated pressure transducer in isoflurane positive-pressure ventilated animals. Steady-state pulmonary and systemic arterial pressures were measured using a Millar Solid State Mikro-tip catheter (Millar Instruments, Houston, Tex.) introduced to the pulmonary arterial trunk at the level of the aortic arch via the right carodid artery. Hemodynamic values were automatically calculated by the physiological data acquisition system, ADI Chart (ADI Instruments, Colorado Springs, Colo.) (Plato BioPharma).
Measurement of RV hypertrophy. After collection of the heart at necropsy, the atria and great vessels were removed. The RV was separated from the LV and S. The wet weights of the RV and LV+S were measured to calculate the Fulton Index.
Tissue preparation. Under anesthesia, the animals were exsanguinated, and the pulmonary circulation flushed with oxygenated (animals from Example 3 [MCT]) or heparizined (animals from Example 4 [Su5416/Hx]) saline. Trachea, lungs, and heart were removed intact from thoracic cavity and placed in ice-cold saline. Right lung lobes were removed, weighed, and immediately flash frozen in liquid nitrogen. A 10 mL syringe filled with fixative (10% NBF) with attached blunt tip needle (20 g) was used to inflate the left lung lobe and the airway was tied off to keep it consistently expanded. The left lung was then immersion fixed in 10% NBF for 48 hrs and then transferred to 70% EtOH for ≤5 days.
Histomorphometric analysis. Three, 3-5 μm thick, transverse sections of the left lung lobe were used for histomorphometric analysis. Overall disease severity scores were determined by light microscopic evaluation of hematoxylin and eosin (H&E)-stained lung sections by a board-certified veterinary pathologist. Scores ranged from 0 (absent), 1 (minimal), 2 (mild), 3 (moderate), 4 (marked) to 5 (severe) and were assigned according to the approximate percentage of the tissue affected by the tissue changes (inflammatory, degenerative, vascular and/or proliferative) characteristic of the PAH model. Average vessel wall thickness was evaluated using lung sections prepared with a modified Verhoeff-van Gieson elastin stain. Image analysis was performed using random field sampling (Visiopharm newCAST) of 10% of tissue area with observer-assisted identification of intra-acinar and pre-acinar vessels and application of a nucleator probe to measure vessel wall thickness. Fully muscularized intra-acinar vessel density was evaluated in a similar manner using dual αSMA/Ki67 IHC-stained sections and observer-assisted counting of ≥70% muscularized (i.e. SMA^+), transversely sectioned, ≤50 μm external diameter, intra-acinar vessels with an identifiable lumen. Vessel-associated Ki67^+ and pRb^+ cells were counted in αSMA/Ki67 IHC-and CD31/pRb IHC-stained lung sections, respectively, using random field sampling of 10% of tissue area and observer-assisted identification of Ki67^+ or pRb^+ cells associated with the walls (i.e. in the intima or media) of vessels 100 μm external diameter.
Immunohistochemistry. […]

[2] = day 14-28, score scale 0-5, FIG. 3g

IC50 (phospho-Rb (Ser807/811); Homo sapiens, 10% FBS, N = 6, FIG. 2c, read-out: Average IC50 (nM), inhibition of phosphorylation of Rb in hPASMCs): 64.2 nM
IC50 (phospho-Rb (Ser807/811); human PASMCs, 5% FBS, FIG. 2a, read-out: IC50, serum-induced Rb phosphorylation): 14.9 nM
IC50 (phospho-Rb (Ser807/811); human PASMCs, PDGF-BB, FIG. 2b, read-out: IC50, PDGF-BB induced Rb phosphorylation): 5.2 nM
SMILES: CC(=O)c1c(C)c2cnc(Nc3ccc(N4CCNCC4)cn3)nc2n(C2CCCC2)c1=O [Palbociclib, 6-acetyl-8-cyclopentyl-5-methyl-2-{[5-(piperazin-1-yl)pyridin-2yl]amino}pyrido[2,3-d]pyrimidin-7(8H)-one]
IC50 (rat primary PASMCs): 27.4 nM
IC50 (human primary PAAFs): 21.6 nM
effect on total Rb levels (phospho-Rb (Ser807/811); human primary PASMCs, 5% FBS or PDGF-BB): little effect
structural changes in the pulmonary vasculature (histomorphometry) ([1]; FIG. 3f): dramatically improved and in some cases fully normalized
vessel-associated Ki67+ proliferating cells (IHC, lung) ([1]; FIG. 5c): dramatically decreased to control levels
vessel-associated phosphoRb+ cells (IHC, lung) ([1]; FIG. 5d): dramatically decreased to control levels
density of fully muscularized intra-acinar vessels (αSMA staining) ([1]; day 14-28, FIG. 3e): greater reduction
average vessel wall thickness (elastin staining), intra-acinar and pre-acinar pulmonary arteries, relative to vehicle/MCT group ([1]; day 14-28, FIG. 3d): 0.58 x MCT
disease severity scores, mean [1, 2]: 1
disease severity scores, range [1, 2]: 0-2
hemodynamic and physiologic effects ([1]; palbociclib 100 mg/kg/day PO QD, therapeutic day 14-28, versus sildenafil day 0-28): not only matched but exceeded the positive hemodynamic and physiologic effects of sildenafil when dosed prophylactically
